{"source": "patent US11890299B2", "about": "“Ablation agent and methods of use” (HOLOGIC, INC., priority 2019, dated 2024)", "system": "bovine liver (simulated tissue)", "assay": "Bolus / chemical ablation test in sample bovine liver tissue", "text": "For example, a solid active agent (HAuCl4) may be added to water at room temperature, and mixed for approximately ten (10) minutes, then filtered and ready to use. The active agent (HAuCl4) solution may be stored for up to a year without stability issues. The hydrophilic nature of the solution facilitates the delivery and spread of the active agent (HAuCl4) throughout the entire target tissue/cavity, while avoiding formation of lumps in the solution or patches of tissue without the solution when delivered.\nFIGS. 2A-C and FIGS. 3-5 illustrate exemplary ablative effects of the active agent (HAuCl4) 300 when applied to a sample tissue. FIG. 2A illustrates a liquid DI water solution of active agent (HAuCl4) 300, a syringe 400 and a sample bovine liver tissue 500. […] FIG. 2C depicts the ablated tissue 500.\nVarious tests were performed in sample tissue 500. For example, in some tests the active agent (HAuCl4) 300 (1 ml) was delivered into the tissue 500 having a constant time of exposure (e.g., 2 minutes at room temperature) but the bolus size (ablated volume) was measured under different active agent (HAuCl4) concentrations (FIG. 3). Data contained in FIG. 3 was measured three times and obtained the average value for the graph, as shown. As known in the art, bolus tests are common to understand diffusion and effectiveness of ablative technologies.\nIn another test, the active agent (HAuCl4) concentration was maintained constant at 0.5% in an injected 1 ml into the sample tissue but the bolus size was measured at different times (FIG. 4). Data reference in FIG. 4 was measured five times and obtained the average value for the graph, as shown. […] Additionally, the bolus size is time dependent but after 3 minutes, 1 ml of 0.5% HAuCl4 DI-water solution stopped the reaction because the solution is not strong enough to penetrate the tissue further. Therefore, the active agent (HAuCl4) chemical ablation is quantity and time dependent.\nFIG. 5 illustrates sample tissue ablation profiles measured and characterized for a range of active agent (HAuCl4) concentration (0.10%, 0.25% and 1% of HAuCl4 within 2 minutes, and a variety of bolus sizes). Optimization was performed to select 0.5% of HAuCl4 in order to achieve desirable ablation profile (rage of 4-9 mm ablation depth of tissue). Additional optimization could be performed to achieve shallower profiles (if desired).", "data": [{"smiles": "[Au+3].[Cl-].[Cl-].[Cl-].[Cl-].[H+]", "note": "[HAuCl4, chloroauric acid]", "values": [{"measurement": "penetration depths in the tissue from the surface of the tissue", "setting": "0.5% HAuCl4 diluted in water, up to three (3) minutes of exposure", "value": "4-9 mm"}, {"measurement": "ablation depth of tissue (ablation profile)", "setting": "0.5% of HAuCl4 selected by optimization", "value": "4-9 mm"}, {"measurement": "bolus size (ablated volume) versus concentration", "setting": "1 ml injected, 2 minutes at room temperature, different concentrations (FIG. 3)", "value": "increases with the active agent (HAuCl4) concentration"}, {"measurement": "time after which the reaction stopped (bolus size versus time)", "setting": "1 ml of 0.5% HAuCl4 DI-water solution (FIG. 4)", "value": 3, "unit": "min"}]}]}
